Experimental data taken from ChEMBL document CHEMBL3046587, “Baseline sensitivity of Monilinia laxa from Greece to fenhexamid and analysis of fenhexamid-resistant mutants” (Crop Prot, 2013).
In brackets after ≈: the same amount, converted by molar mass.

Columns and labels:
Monilinia laxa [1] = assay: Fungitoxicity against moderately fenhexamid resistant Monilinia laxa MF-7 assessed as reduction in mycelial growth measured at 25 degC after 4 days; format: functional, organism-based; details: MF-7, 96 h
Monilinia laxa [2] = assay: Fungitoxicity against highly fenhexamid resistant Monilinia laxa MF-5 assessed as reduction in mycelial growth measured at 25 degC after 4 days; format: functional, organism-based; details: MF-5, 96 h
Monilinia laxa [3] = assay: Fungitoxicity against moderately fenhexamid resistant Monilinia laxa MF-4 assessed as reduction in mycelial growth measured at 25 degC after 4 days; format: functional, organism-based; details: MF-4, 96 h
Monilinia laxa [4] = assay: Fungitoxicity against moderately fenhexamid resistant Monilinia laxa MF-6 assessed as reduction in mycelial growth measured at 25 degC after 4 days; format: functional, organism-based; details: MF-6, 96 h
Monilinia laxa [5] = assay: Fungitoxicity against wild type Monilinia laxa K2 assessed as reduction in mycelial growth measured at 25 degC after 4 days; format: functional, organism-based; details: K2, 96 h
Monilinia laxa [6] = assay: Resistance factor, ratio of EC50 for Monilinia laxa MF-3 to EC50 for wild type Monilinia laxa K2; format: functional
Monilinia laxa [7] = assay: Resistance factor, ratio of EC50 for Monilinia laxa MF-5 to EC50 for wild type Monilinia laxa K2; format: functional
Monilinia laxa [8] = assay: Resistance factor, ratio of EC50 for Monilinia laxa MF-8 to EC50 for wild type Monilinia laxa K2; format: functional
Monilinia laxa [9] = assay: Resistance factor, ratio of EC50 for Monilinia laxa MF-19 to EC50 for wild type Monilinia laxa K2; format: functional
Monilinia laxa [10] = assay: Resistance factor, ratio of EC50 for Monilinia laxa MF-4 to EC50 for wild type Monilinia laxa K2; format: functional
Monilinia laxa [11] = assay: Resistance factor, ratio of EC50 for Monilinia laxa MF-6 to EC50 for wild type Monilinia laxa K2; format: functional
Monilinia laxa [12] = assay: Resistance factor, ratio of EC50 for Monilinia laxa MF-22 to EC50 for wild type Monilinia laxa K2; format: functional
Monilinia laxa [13] = assay: Resistance factor, ratio of EC50 for Monilinia laxa MF-20 to EC50 for wild type Monilinia laxa K2; format: functional
Monilinia laxa [14] = assay: Resistance factor, ratio of EC50 for Monilinia laxa MF-1 to EC50 for wild type Monilinia laxa K2; format: functional
Monilinia laxa [15] = assay: Resistance factor, ratio of EC50 for Monilinia laxa MF-15 to EC50 for wild type Monilinia laxa K2; format: functional
Monilinia laxa [16] = assay: Resistance factor, ratio of EC50 for Monilinia laxa MF-7 to EC50 for wild type Monilinia laxa K2; format: functional
Monilinia laxa [17] = assay: Resistance factor, ratio of EC50 for Monilinia laxa MLP2 to EC50 for wild type Monilinia laxa K2; format: functional
Monilinia laxa [18] = assay: Resistance factor, ratio of EC50 for Monilinia laxa MLK12 to EC50 for wild type Monilinia laxa K2; format: functional
Monilinia laxa [19] = assay: Resistance factor, ratio of EC50 for Monilinia laxa MLC2 to EC50 for wild type Monilinia laxa K2; format: functional
Monilinia laxa [20] = assay: Resistance factor, ratio of EC50 for Monilinia laxa MLK6 to EC50 for wild type Monilinia laxa K2; format: functional
Monilinia laxa [21] = assay: Resistance factor, ratio of EC50 for Monilinia laxa MLBO7 to EC50 for wild type Monilinia laxa K2; format: functional
Monilinia laxa [22] = assay: Resistance factor, ratio of EC50 for Monilinia laxa MLX2 to EC50 for wild type Monilinia laxa K2; format: functional
Monilinia laxa [23] = assay: Fungitoxicity against Monilinia laxa MF-2 assessed as diameter of mycelial colony measured at 25 degC after 4 days; format: functional
Monilinia laxa [24] = assay: Fungitoxicity against Monilinia laxa MF-3 assessed as diameter of mycelial colony measured at 25 degC after 4 days; format: functional
Monilinia laxa [25] = assay: Fungitoxicity against Monilinia laxa MF-5 assessed as diameter of mycelial colony measured at 25 degC after 4 days; format: functional
Monilinia laxa [26] = assay: Fungitoxicity against Monilinia laxa MF-19 assessed as diameter of mycelial colony measured at 25 degC after 4 days; format: functional
Monilinia laxa [27] = assay: Fungitoxicity against Monilinia laxa MF-8 assessed as diameter of mycelial colony measured at 25 degC after 4 days; format: functional
Monilinia laxa [28] = assay: Fungitoxicity against Monilinia laxa MF-6 assessed as diameter of mycelial colony measured at 25 degC after 4 days; format: functional
Monilinia laxa [29] = assay: Fungitoxicity against highly fenhexamid resistant Monilinia laxa MF-2 assessed as reduction in mycelial growth measured at 25 degC after 4 days; format: functional, organism-based; details: MF-2, 96 h
Monilinia laxa [30] = assay: Fungitoxicity against highly fenhexamid resistant Monilinia laxa MF-3 assessed as reduction in mycelial growth measured at 25 degC after 4 days; format: functional, organism-based; details: MF-3, 96 h
Monilinia laxa [31] = assay: Fungitoxicity against moderately fenhexamid resistant Monilinia laxa MF-22 assessed as reduction in mycelial growth measured at 25 degC after 4 days; format: functional, organism-based; details: MF-22, 96 h
Monilinia laxa [32] = assay: Fungitoxicity against moderately fenhexamid resistant Monilinia laxa MF-8 assessed as reduction in mycelial growth measured at 25 degC after 4 days; format: functional, organism-based; details: MF-8, 96 h
Monilinia laxa [33] = assay: Fungitoxicity against moderately fenhexamid resistant Monilinia laxa MF-1 assessed as reduction in mycelial growth measured at 25 degC after 4 days; format: functional, organism-based; details: MF-1, 96 h
Monilinia laxa [34] = assay: Resistance factor, ratio of EC50 for Monilinia laxa MF-2 to EC50 for wild type Monilinia laxa K2; format: functional
Monilinia laxa [35] = assay: Fungitoxicity against Monilinia laxa MF-4 assessed as diameter of mycelial colony measured at 25 degC after 4 days; format: functional
Monilinia laxa [36] = assay: Fungitoxicity against Monilinia laxa MF-22 assessed as diameter of mycelial colony measured at 25 degC after 4 days; format: functional
Monilinia laxa [37] = assay: Fungitoxicity against Monilinia laxa MF-20 assessed as diameter of mycelial colony measured at 25 degC after 4 days; format: functional
Monilinia laxa [38] = assay: Fungitoxicity against Monilinia laxa MF-15 assessed as diameter of mycelial colony measured at 25 degC after 4 days; format: functional
Monilinia laxa [39] = assay: Fungitoxicity against Monilinia laxa MF-1 assessed as diameter of mycelial colony measured at 25 degC after 4 days; format: functional
Monilinia laxa [40] = assay: Fungitoxicity against Monilinia laxa MF-7 assessed as diameter of mycelial colony measured at 25 degC after 4 days; format: functional
Monilinia laxa [41] = assay: Fungitoxicity against Monilinia laxa MLP2 assessed as diameter of mycelial colony measured at 25 degC after 4 days; format: functional
Monilinia laxa [42] = assay: Fungitoxicity against Monilinia laxa MLK12 assessed as diameter of mycelial colony measured at 25 degC after 4 days; format: functional
Monilinia laxa [43] = assay: Fungitoxicity against Monilinia laxa MLC2 assessed as diameter of mycelial colony measured at 25 degC after 4 days; format: functional
Monilinia laxa [44] = assay: Fungitoxicity against Monilinia laxa MLBO7 assessed as diameter of mycelial colony measured at 25 degC after 4 days; format: functional
Monilinia laxa [45] = assay: Fungitoxicity against Monilinia laxa MLK6 assessed as diameter of mycelial colony measured at 25 degC after 4 days; format: functional
Monilinia laxa [46] = assay: Fungitoxicity against Monilinia laxa MLX2 assessed as diameter of mycelial colony measured at 25 degC after 4 days; format: functional
Monilinia laxa [47] = assay: Fungitoxicity against Monilinia laxa K2 assessed as diameter of mycelial colony measured at 25 degC after 4 days; format: functional

COC(=O)Nc1nc2ccccc2[nH]1 [CARBENDAZIM]
EC50 (Monilinia laxa [1]): 0.3 µg/mL (≈ 1.57 µM)
EC50 (Monilinia laxa [2]): 0.5 µg/mL (≈ 2.62 µM)
EC50 (Monilinia laxa [3]): 0.2 µg/mL (≈ 1.05 µM)
EC50 (Monilinia laxa [4]): 0.2 µg/mL (≈ 1.05 µM)

CC1(C(=O)Nc2ccc(O)c(Cl)c2Cl)CCCCC1 [FENHEXAMID]
EC50 (Monilinia laxa [5]): 0.1 µg/mL (≈ 0.331 µM)
Ratio EC50 (Monilinia laxa [6]): 75
Ratio EC50 (Monilinia laxa [7]): 70
Ratio EC50 (Monilinia laxa [8]): 58
Ratio EC50 (Monilinia laxa [9]): 43
Ratio EC50 (Monilinia laxa [10]): 40
Ratio EC50 (Monilinia laxa [11]): 58
Ratio EC50 (Monilinia laxa [12]): 37
Ratio EC50 (Monilinia laxa [13]): 34
Ratio EC50 (Monilinia laxa [14]): 23
Ratio EC50 (Monilinia laxa [15]): 31
Ratio EC50 (Monilinia laxa [16]): 22
Ratio EC50 (Monilinia laxa [17]): 0.3
Ratio EC50 (Monilinia laxa [18]): 2.2
Ratio EC50 (Monilinia laxa [19]): 3.7
Ratio EC50 (Monilinia laxa [20]): 1.2
Ratio EC50 (Monilinia laxa [21]): 0.4
Ratio EC50 (Monilinia laxa [22]): 1.1
Activity (Monilinia laxa [23]): 54 mm
Activity (Monilinia laxa [24]): 60 mm
Activity (Monilinia laxa [25]): 57 mm
Activity (Monilinia laxa [26]): 55 mm
Activity (Monilinia laxa [27]): 58 mm
Activity (Monilinia laxa [28]): 56 mm
EC50 (Monilinia laxa [29]): 11.1 µg/mL (≈ 36.7 µM)
EC50 (Monilinia laxa [30]): 7.4 µg/mL (≈ 24.5 µM)
EC50 (Monilinia laxa [1]): 2.3 µg/mL (≈ 7.61 µM)
EC50 (Monilinia laxa [2]): 6.9 µg/mL (≈ 22.8 µM)
EC50 (Monilinia laxa [3]): 4 µg/mL (≈ 13.2 µM)
EC50 (Monilinia laxa [31]): 3.7 µg/mL (≈ 12.2 µM)
EC50 (Monilinia laxa [32]): 5.8 µg/mL (≈ 19.2 µM)
EC50 (Monilinia laxa [4]): 5.8 µg/mL (≈ 19.2 µM)
EC50 (Monilinia laxa [33]): 2.2 µg/mL (≈ 7.28 µM)
Ratio EC50 (Monilinia laxa [34]): 111
Activity (Monilinia laxa [35]): 57 mm
Activity (Monilinia laxa [36]): 56 mm
Activity (Monilinia laxa [37]): 55 mm
Activity (Monilinia laxa [38]): 56 mm
Activity (Monilinia laxa [39]): 50 mm
Activity (Monilinia laxa [40]): 55 mm
Activity (Monilinia laxa [41]): 60 mm
Activity (Monilinia laxa [42]): 55 mm
Activity (Monilinia laxa [43]): 49 mm
Activity (Monilinia laxa [44]): 60 mm
Activity (Monilinia laxa [45]): 52 mm
Activity (Monilinia laxa [46]): 59 mm
Activity (Monilinia laxa [47]): 57 mm

CC(Cc1ccc(C(C)(C)C)cc1)CN1C[C@@H](C)O[C@@H](C)C1 (stereo partly specified) [FENPROPIMORPH]
EC50 (Monilinia laxa [5]): 0.14 µg/mL (≈ 0.461 µM)
EC50 (Monilinia laxa [29]): 0.18 µg/mL (≈ 0.593 µM)
EC50 (Monilinia laxa [30]): 0.11 µg/mL (≈ 0.362 µM)
EC50 (Monilinia laxa [1]): 0.1 µg/mL (≈ 0.33 µM)
EC50 (Monilinia laxa [2]): 0.15 µg/mL (≈ 0.494 µM)
EC50 (Monilinia laxa [3]): 0.12 µg/mL (≈ 0.395 µM)
EC50 (Monilinia laxa [31]): 0.5 µg/mL (≈ 1.65 µM)
EC50 (Monilinia laxa [32]): 0.3 µg/mL (≈ 0.989 µM)
EC50 (Monilinia laxa [4]): 1 µg/mL (≈ 3.3 µM)
EC50 (Monilinia laxa [33]): 1 µg/mL (≈ 3.3 µM)

N#Cc1c[nH]cc1-c1cccc2c1OC(F)(F)O2 [FLUDIOXONIL]
EC50 (Monilinia laxa [5]): 0.01 µg/mL (≈ 0.0403 µM)
EC50 (Monilinia laxa [29]): 0.03 µg/mL (≈ 0.121 µM)
EC50 (Monilinia laxa [30]): 0.01 µg/mL (≈ 0.0403 µM)
EC50 (Monilinia laxa [1]): 0.01 µg/mL (≈ 0.0403 µM)
EC50 (Monilinia laxa [2]): 0.01 µg/mL (≈ 0.0403 µM)
EC50 (Monilinia laxa [3]): 0.03 µg/mL (≈ 0.121 µM)
EC50 (Monilinia laxa [31]): 0.02 µg/mL (≈ 0.0806 µM)
EC50 (Monilinia laxa [32]): 0.05 µg/mL (≈ 0.201 µM)
EC50 (Monilinia laxa [4]): 0.02 µg/mL (≈ 0.0806 µM)
EC50 (Monilinia laxa [33]): 0.02 µg/mL (≈ 0.0806 µM)

C[Si](Cn1cncn1)(c1ccc(F)cc1)c1ccc(F)cc1 [FLUSILAZOLE]
EC50 (Monilinia laxa [5]): 0.1 µg/mL (≈ 0.317 µM)
EC50 (Monilinia laxa [29]): 0.1 µg/mL (≈ 0.317 µM)
EC50 (Monilinia laxa [30]): 0.1 µg/mL (≈ 0.317 µM)
EC50 (Monilinia laxa [1]): 0.2 µg/mL (≈ 0.634 µM)
EC50 (Monilinia laxa [2]): 0.1 µg/mL (≈ 0.317 µM)
EC50 (Monilinia laxa [3]): 0.1 µg/mL (≈ 0.317 µM)
EC50 (Monilinia laxa [31]): 0.4 µg/mL (≈ 1.27 µM)
EC50 (Monilinia laxa [32]): 0.2 µg/mL (≈ 0.634 µM)
EC50 (Monilinia laxa [4]): 0.3 µg/mL (≈ 0.951 µM)
EC50 (Monilinia laxa [33]): 0.2 µg/mL (≈ 0.634 µM)
